Assay results reported in ChEMBL document CHEMBL5512647, “Cajaninstilbene acid derivatives conjugated with siderophores of 3-hydroxypyridin-4(1H)-ones as novel antibacterial agents against Gram-negative bacteria based on the Trojan horse strategy” (Eur J Med Chem, 2024).
In brackets after ≈: the same amount, converted by molar mass. Activity calls are given as the source filed them. The calls are words filed in the database; no cut-off is given here.

Key:
Escherichia coli [1] = test: Antibacterial activity against Escherichia coli ATCC 25922 measured after 18 to 20 hrs by broth microdilution method; type: functional; conditions: time 18-20 hrs
Pseudomonas aeruginosa [2] = test: Antibacterial activity against Pseudomonas aeruginosa FB measured after 18 to 20 hrs by broth microdilution method; type: functional; conditions: time 18-20 hrs
Klebsiella pneumoniae [3] = test: Antibacterial activity against Klebsiella pneumoniae ATCC 700603 measured after 18 to 20 hrs by broth microdilution method; type: functional; conditions: time 18-20 hrs
Pseudomonas aeruginosa [4] = test: Antibacterial activity against Pseudomonas aeruginosa 27853 measured after 18 to 20 hrs by broth microdilution method; type: functional; conditions: time 18-20 hrs
Pseudomonas aeruginosa [5] = test: Antibacterial activity against Pseudomonas aeruginosa 1121 measured after 18 to 20 hrs by broth microdilution method; type: functional; conditions: time 18-20 hrs
Pseudomonas aeruginosa [6] = test: Antibacterial activity against Pseudomonas aeruginosa PAO1 measured after 18 to 20 hrs by broth microdilution method; type: functional; conditions: time 18-20 hrs
Staphylococcus aureus = test: Antibacterial activity against Staphylococcus aureus ATCC 25923 measured after 18 to 20 hrs by broth microdilution method; type: functional; conditions: time 18-20 hrs
Klebsiella pneumoniae [7] = test: Antibacterial activity against Klebsiella pneumoniae ATCC 700603 measured after 18 to 20 hrs in presence of FeIII cultured under CAA medium by broth microdilution method; type: functional; conditions: time 18-20 hrs
Pseudomonas aeruginosa [8] = test: Antibacterial activity against Pseudomonas aeruginosa 27853 measured after 18 to 20 hrs in presence of FeIII cultured under CAA medium by broth microdilution method; type: functional; conditions: time 18-20 hrs
Pseudomonas aeruginosa [9] = test: Antibacterial activity against Pseudomonas aeruginosa PAO1 measured after 18 to 20 hrs in presence of FeIII cultured under CAA medium by broth microdilution method; type: functional; conditions: time 18-20 hrs
Escherichia coli [10] = test: Antibacterial activity against Escherichia coli ATCC 25922 measured after 18 to 20 hrs in presence of FeIII cultured under CAA medium by broth microdilution method; type: functional; conditions: time 18-20 hrs
[11] = Metal chelating activity assessed as compound-Fe3+ complex formation incubated for 10 mins by CAS assay
Pseudomonas aeruginosa [12] = test: Antibacterial activity against Pseudomonas aeruginosa PAO1 infected in Caenorhabditis elegans assessed as improvement in survival rate at 50 uM measured after 72 hrs; type: functional, organism-based
[13] = Cytotoxicity against African green monkey Vero cells at 50 uM measured after 24 hrs by MTT assay; type: toxicity, cell-based; conditions: chlorocebus sabaeus

| SMILES | MIC (Escherichia coli [1]) | MIC (Pseudomonas aeruginosa [2]) | MIC (Klebsiella pneumoniae [3]) | MIC (Pseudomonas aeruginosa [4]) | MIC (Pseudomonas aeruginosa [5]) | MIC (Pseudomonas aeruginosa [6]) | MIC (Staphylococcus aureus) | MIC (Klebsiella pneumoniae [7]) | MIC (Pseudomonas aeruginosa [8]) | MIC (Pseudomonas aeruginosa [9]) | MIC (Escherichia coli [10]) | Activity [11] | Activity (Pseudomonas aeruginosa [12]) | Activity [13] |
| --- | --- | --- | --- | --- | --- | --- | --- | --- | --- | --- | --- | --- | --- | --- |
| CC(C)=CCc1c(OCc2cn(CCn3cc(O)c(=O)cc3C)nn2)cc(/C=C/c2ccc(F)cc2)c(C(=O)O)c1O | > 250 µM | 250 µM (≈ 144 µg/mL) | > 250 µM | 62.5 µM (≈ 35.9 µg/mL) | 250 µM (≈ 144 µg/mL) | 125 µM (≈ 71.8 µg/mL) | > 250 µM | – | – | – | – | – | – | – |
| CC(C)=CCc1c(OCCCCCCCC(=O)NCc2c(O)c(=O)cc(C)n2C)cc(CSc2ccc(F)cc2)c(C(=O)O)c1O | > 250 µM | > 250 µM | > 250 µM | > 250 µM | > 250 µM | > 250 µM | > 250 µM | – | – | – | – | – | – | – |
| CC(C)=CCc1c(OCCCCC(=O)NCc2cc(=O)c(O)cn2C)cc(/C=C/c2ccc(F)cc2)c(C(=O)O)c1O | > 250 µM | 31.2 µM (≈ 18.1 µg/mL) | > 250 µM | 31.2 µM (≈ 18.1 µg/mL) | 31.2 µM (≈ 18.1 µg/mL) | 31.2 µM (≈ 18.1 µg/mL) | > 250 µM | – | – | – | – | – | – | – |
| COc1cc(/C=C/c2ccc(F)cc2)c(C(=O)O)c(O)c1CC=C(C)C | > 250 µM | > 250 µM | > 250 µM | > 250 µM | > 250 µM | > 250 µM | 15.6 µM (≈ 5.56 µg/mL) | > 250 µM | > 250 µM | > 250 µM | > 250 µM | inactive | inactive | Non-Toxic |
| CC(C)=CCc1c(OCCCCCC(=O)NCc2c(O)c(=O)cc(C)n2C)cc(/C=C/c2ccc(F)cc2)c(C(=O)O)c1O | > 250 µM | > 250 µM | > 250 µM | > 250 µM | > 250 µM | > 250 µM | > 250 µM | – | – | – | – | – | – | – |
| CC(C)=CCc1c(OCc2cn(CCCCCCC(=O)NCc3cc(=O)c(O)cn3C)nn2)cc(/C=C/c2ccc(F)cc2)c(C(=O)O)c1O | > 250 µM | > 250 µM | > 250 µM | > 250 µM | > 250 µM | 15.6 µM (≈ 10.7 µg/mL) | > 250 µM | – | – | – | – | – | – | – |
| CC(C)=CCc1c(OCCCCCCCC(=O)NCc2cc(=O)c(O)cn2C)cc(CSc2ccc(F)cc2)c(C(=O)O)c1O | > 250 µM | > 250 µM | > 250 µM | > 250 µM | > 250 µM | > 250 µM | > 250 µM | – | – | – | – | – | – | – |

More lines, main results first:

| MIC (Escherichia coli [1]) | MIC (Pseudomonas aeruginosa [2]) | MIC (Klebsiella pneumoniae [3]) | MIC (Pseudomonas aeruginosa [4]) | MIC (Pseudomonas aeruginosa [5]) | MIC (Pseudomonas aeruginosa [6]) | MIC (Staphylococcus aureus) | MIC (Klebsiella pneumoniae [7]) | MIC (Pseudomonas aeruginosa [8]) | MIC (Pseudomonas aeruginosa [9]) | MIC (Escherichia coli [10]) | Activity [11] | SMILES | Activity (Pseudomonas aeruginosa [12]) | Activity [13] |
| --- | --- | --- | --- | --- | --- | --- | --- | --- | --- | --- | --- | --- | --- | --- |
| > 250 µM | > 250 µM | > 250 µM | > 250 µM | > 250 µM | > 250 µM | > 250 µM | – | – | – | – | – | CC(C)=CCc1c(OCc2cn(Cc3cc(=O)c(O)cn3C)nn2)cc(/C=C/c2ccc(F)cc2)c(C(=O)O)c1O | – | – |
| > 250 µM | > 250 µM | > 250 µM | > 250 µM | > 250 µM | > 250 µM | > 250 µM | – | – | – | – | – | CC(C)=CCc1c(OCCCCCCCC(=O)NCc2c(O)c(=O)cc(C)n2C)cc(/C=C/c2ccc(F)cc2)c(C(=O)O)c1O | – | – |
| > 250 µM | > 250 µM | > 250 µM | > 250 µM | > 250 µM | 7.8 µM (≈ 4.89 µg/mL) | > 250 µM | – | – | – | – | – | CC(C)=CCc1c(OCCCCCCC(=O)NCc2cc(=O)c(O)cn2C)cc(CSc2ccc(F)cc2)c(C(=O)O)c1O | – | – |
| 1.95 µM (≈ 0.681 µg/mL) | > 250 µM | > 250 µM | > 250 µM | > 250 µM | 125 µM (≈ 43.7 µg/mL) | 0.24 µM (≈ 0.0839 µg/mL) | > 250 µM | > 250 µM | 62.5 µM | 3.9 µM | – | CC1(C)S[C@@H]2[C@H](NC(=O)[C@H](N)c3ccccc3)C(=O)N2[C@H]1C(=O)O [AMPICILLIN] | – | – |
| > 250 µM | > 250 µM | > 250 µM | 31.2 µM (≈ 19.8 µg/mL) | > 250 µM | 7.8 µM (≈ 4.95 µg/mL) | > 250 µM | – | – | – | – | – | CCCn1cc(O)c(=O)cc1CNC(=O)CCCCCCOc1cc(/C=C/c2ccc(F)cc2)c(C(=O)O)c(O)c1CC=C(C)C | – | – |
